# Reference: patent US20210038559A1, “CANNABINOIDS AND DERIVATIVES FOR PROMOTING IMMUNOGENICITY OF TUMOR AND INFECTED CELLS” (priority 2018, published 2021)
# Legend:
# [1] = test system: CD8+ T cells from OT1 mice co-cultured with A9 cells; assay: OT1 CD8+ T cell proliferation (CFSE) in co-culture with […]-loaded A9 cells; format: cell-based, mouse
# Procedure: FIG. 8. A proliferation experiment using CD8^+ T cells from […]-primed OT1 mice in response to […] peptide presented on MHC class I of A9 cells. A9 cells were treated with 0.055 μM of Cannabigerol, 5.832×10^−6 nM of IFN gamma positive control. The negative control is named “CFSE and […] CD8^+ T cells”. T cells were labeled with CFSE proliferation dye, which is reduced within the progeny cells as the generations progress.
# FIG. 9 MHC Class I expression of A9 cells associated with CD8^+ T cells from […]-primed OT. A9 cells were treated with 0.055 μM of Cannabigerol, or 5.832×10^4 nM of IFN gamma.
# A cytolytic assay was performed as follows. A9 cells (1×10^6) were plated onto a 6 well plate in two mL of RPMI media (Advanced RPMI-1640 Medium (Gibco), 100 U/mL of Penicillin-Streptomycin (P+S) (Thermofisher), 1% L-Glutamine (Gibco), and 10% FBS). A9 cells were treated with either Cannabigerol 0.055 μM, 5.832×10^4 nM IFN gamma, or 1% DMSO vehicle. After 24 hours, […] OVA Peptide ([…]) (Genscript), was added to the A9 cells. Following an additional 24 hours, CD8^+ T cells were collected from OT1 mouse spleens. […] An extra well of untreated A9 cells was counted and used as a standard count. CD8^+ T cells were counted and then treated with CFSE (Biolegend) per manufacture protocol, before being co-cultured with A9 cells to a 1:1 ratio or a 1:5 ratio. […]
# [2] = test system: MHC class I expression, metastatic mouse tumor cell line; assay: Indirect screen for compounds that increase MHC class I expression in a metastatic mouse tumor cell line; format: cell-based
# Source text: An assay has been developed to indirectly screen for compounds that increase MHC class I expression in a metastatic mouse tumor cell line (U.S. patent Ser. No. 14/548,726, Jefferies et. al., published 28 May 2015). This assay identified numerous compounds that increased MHC expression. […] In addition, some other cannabinoids induce expression of MHC class I on tumor cells.
# [3] = test system: MHC-I expression on COLO 205 cells; assay: Phytocannabinoid MHC-I induction on COLO 205 cells, 0-100 μM, 48 hours
# Procedure: FIG. 4. Cell surface MHC class I expression was measured by flow cytometry (MFI).
# Phytocannabinoids were tested for MHC-I-inducing activity on COLO 205 cells. Each cannabinoid was tested at a concentration range of 0-100 μM. […] “ND” indicates not determined.
# [4] = test system: MHC class I expression on COLO 205 cells; assay: MHC class I expression on COLO 205 cells, 24 hours, flow cytometry (W6/32); conditions: for MFI: W6/32 staining; for increase in MHC class I expression: 24 hours, relative to non-treated cells
# Procedure: FIG. 2A-2F. […] Cells were treated for 24 hours and cell surface MHC class I expression was measured by flow cytometry.
# Cannabigerol was also tested for its capacity to induce MHC class I expression in a human colorectal carcinoma cell line, COLO 205. The cells were treated with either 25 μM or 50 μM cannabigerol for 24 hours. Fluorophor (Alexa Fluor 488)-conjugated W6/32 antibody (Thermo Fisher) was used in a flow cytometry assay to quantitate MHC class I expression. […] Cannabigerol is only one of many cannabinoid-like molecules with potential biopharmaceutical activity. […] COLO 205 cells were treated with up to 40 μM of the cannabinoids 1-5 presented in Tables 1 and 2 and evaluated for cell surface MHC class I expression as described above for cannabigerol.
# [5] = test system: A9 cells, soluble mouse proteins; assay: Cytokine secretion profile in Cannabigerol treated A9 cells (Proteome Profiler Mouse XL cytokine array); format: cell-based; conditions: 0.055 μM, 48 hours, versus DMSO
# Procedure: FIG. 10A-10E show the cytokines and other markers that have increased or decreased expression after treatment with cannabinoids, as compared to interferon gamma. FIG. 10A) Inflammatory markers; FIG. 10B) Cell growth markers; FIG. 10C) Leukocyte migration markers; FIG. 10D) Cell growth and differentiation markers; FIG. 10E) summary of markers.
# Cannabigerol and IFN gamma were dissolved in 1% Dimethyl Sulfoxide (DMSO) (Sigma) in media (1% DMSO). 1×10^6 A9 cells were plated onto a 6 well plate in two mL of DMEM media. Twenty-four hours after seeding, cells were cultured at the optimum concentrations of Cannabigerol 0.055 μM or 5.832×10^−6 nM IFN gamma or 1% DMSO vehicle for 48 hours. Relative expression levels of 111 soluble mouse proteins including cytokines, chemokines and growth factors were evaluated using the Proteome Profiler Mouse XL cytokine array kit (R&D System, ARY028) following the manufacturer's instructions. Spot densities on the array film were detected and quantified using Image J analysis software Image J protein analyzer add-on on a scanned version of the film. Quantification of the spot intensity in the arrays was conducted with background subtraction in ImageJ. To determine fold change, the treatment values of IFN gamma microarrays were divided by the DMSO negative control values of the concurring spots. A value of 1 was subtracted from the absolute value of this fold change, to correct the value of DMSO to “0”. Experiment was done in technical replicates.
# There also was an increase in VEGFA. Additionally, there was downregulation of IL-10, and IL-11. There also was a decrease in the production of IGFBP1 and angiopoietin-1,
structure (smiles),measurement,setting,value
"CCCCCc1cc(O)c(C/C=C(\C)CCC=C(C)C)c(O)c1 [Example 1, 2-[(2E)-3,7-dimethyl-2,6-octadien-1-yl]-5-pentyl-1,3-benzenediol]",MHC class I on the A9 cells associated with the OT1 T cells,[1]; A9 cells treated with 0.055 μM,increase
same,proliferation of OT1 CD8+ T cells,[1]; A9 cells treated with 0.055 μM for 48 hours prior to co-culture,increased proliferation
same,activity in the MHC class I screening assay,[2],significant activity
same,EC50,"[3]; Homo sapiens, COLO 205, 48 h",40 µM
same,Fold Induction,"[3]; MHC-I expression on COLO 205 cells, 0-100 μM, 48 hours, relative to control cells treated only with buffer",2.7 Fold
same,MFI,"[4]; COLO 205, 10 μM",125
same,MFI,"[4]; COLO 205, 20 μM",130
same,increase in MHC class I expression,"[4]; COLO 205, 25 μM",25%
same,MFI,"[4]; COLO 205, 30 μM",130
same,MFI,"[4]; COLO 205, 40 μM",164
same,increase in MHC class I expression,"[4]; COLO 205, 50 μM",2 fold
same,Cell viability,"[4]; COLO 205, all treatment conditions (25 μM or 50 μM, 24 hours)",> 95%
same,fold induction at 10 µM,"[4]; Homo sapiens, COLO 205",1.03
same,fold induction at 20 µM,"[4]; Homo sapiens, COLO 205",1.07
same,fold induction at 30 µM,"[4]; Homo sapiens, COLO 205",1.07
same,fold induction at 40 µM,"[4]; Homo sapiens, COLO 205",1.36
same,FGF-21 expression,[5],upregulated
same,IL-10 expression,[5],downregulation
same,IL-11 expression,[5],downregulation
same,IL-13 expression,[5],upregulated
same,VEGFA expression,[5],increase
same,production of IGFBP1,[5],decrease
same,production of angiopoietin-1,[5],decrease
